ChEMBL document CHEMBL1697781, “Assessment of the health effects of chemicals in humans: II. Construction of an adverse effects database for QSAR modeling” (Curr Drug Discov Technol, 2004)

Tests used:
Details in all cases: human; call rule not given here
Hepatotoxicity [1] = assay: FDA HLAED, lactate dehydrogenase (LDH) increase
Hepatotoxicity [2] = assay: FDA HLAED, liver enzyme composite activity
Hepatotoxicity [3] = assay: FDA HLAED, alkaline phosphatase increase
Hepatotoxicity [4] = assay: FDA HLAED, serum glutamic oxaloacetic transaminase (SGOT) increase
Hepatotoxicity [5] = assay: FDA HLAED, gamma-glutamyl transferase (GGT) increase
Hepatotoxicity [6] = assay: FDA HLAED, serum glutamic pyruvic transaminase (SGPT) increase
For GGT Increase - Index Value in this document: reference of the scale not given here.
For LDH Increase - Index Value in this document: reference of the scale not given here.

SMILES | LDH Increase - Activity Score (Hepatotoxicity [1]) | LDH Increase - Index Value (Hepatotoxicity [1]) | LDH Increase - Number of Reports (Hepatotoxicity [1]) | Composite Activity - Active (Hepatotoxicity [2]) | Composite Activity - Marginal (Hepatotoxicity [2]) | Composite Activity - Score (Hepatotoxicity [2]) | Alkaline Phosphatase Increase - Activity Score (Hepatotoxicity [3]) | Alkaline Phosphatase Increase - Index Value (Hepatotoxicity [3]) | Alkaline Phosphatase Increase - Number of Reports (Hepatotoxicity [3]) | SGOT Increase - Activity Score (Hepatotoxicity [4]) | SGOT Increase - Index Value (Hepatotoxicity [4]) | SGOT Increase - Number of Reports (Hepatotoxicity [4]) | GGT Increase - Activity Score (Hepatotoxicity [5]) | GGT Increase - Index Value (Hepatotoxicity [5]) | GGT Increase - Number of Reports (Hepatotoxicity [5]) | SGPT Increase - Activity Score (Hepatotoxicity [6]) | SGPT Increase - Index Value (Hepatotoxicity [6]) | SGPT Increase - Number of Reports (Hepatotoxicity [6])
CCCCC[C@H](O)/C=C/[C@@H]1[C@H]2C/C(=C/CCCC(=O)O)O[C@H]2C[C@H]1O [EPOPROSTENOL] | Inactive | 0 | < 4 | 0 | 0 | Inactive | Inactive | 0 | < 4 | Inactive | 0 | < 4 | Inactive | 0 | < 4 | Inactive | 0 | < 4
Nc1nc(/C(=C/CC(=O)O)C(=O)N[C@@H]2C(=O)N3C(C(=O)O)=CCS[C@H]23)cs1 [CEFTIBUTEN] | Inactive | 0 | < 4 | 0 | 0 | Inactive | Inactive | 0 | < 4 | Inactive | 0 | < 4 | Inactive | 0 | < 4 | Inactive | 0 | < 4
CCCCC(=O)N(Cc1ccc(-c2ccccc2-c2nnn[nH]2)cc1)[C@H](C(=O)O)C(C)C | Inactive | 0 | < 4 | 0 | 0 | Inactive | Inactive | 0 | < 4 | Inactive | 5 | < 4 | Inactive | 2.5 | < 4 | Inactive | 7.6 | < 4
CC(CCc1ccc(O)cc1)NCCc1ccc(O)c(O)c1 (stereo not drawn) [DOBUTAMINE] | Inactive | 0 | < 4 | 0 | 0 | Inactive | Inactive | 0 | < 4 | Inactive | 0 | < 4 | Inactive | 0 | < 4 | Inactive | 0 | < 4
FCOC(C(F)(F)F)C(F)(F)F [SEVOFLURANE] | Inactive | 1.6 | < 4 | 0 | 0 | Inactive | Inactive | 3.1 | < 4 | Inactive | 4.6 | < 4 | Inactive | 0 | < 4 | Inactive | 0 | < 4
C[C@@H]1C[C@H]2[C@@H]3C[C@H](F)C4=CC(=O)C=C[C@]4(C)[C@@]3(F)[C@@H](O)C[C@]2(C)[C@@]1(O)C(=O)SCF [FLUTICASONE] | Inactive | 0 | < 4 | 0 | 0 | Inactive | Inactive | 0 | < 4 | Inactive | 0.8 | < 4 | Inactive | 0 | < 4 | Inactive | 0.8 | < 4
